Data taken from ChEMBL document CHEMBL5252658, “Conversion of a Cardiac Muscle Modulator from an Inhibitor to an Activator” (ACS Med Chem Lett, 2023).
Activity calls are given as the source filed them. The rule behind the calls is not given here.

Assays:
Bos taurus = species: Bos taurus; test: Modulation of bovine cardiac myofibrils ATPase activity at 50 uM relative to control; conditions: filed as modulator
[1] = Binding affinity to CTNI-CTNC N-domain chimera (unknown origin) assessed as dissociation constant; set-up: species or system Homo sapiens
Rattus norvegicus = species: Rattus norvegicus; test: Cardiovascular activity in rat ventricular trabeculae assessed as increase in calcium sensitivity of force development at 50 uM; format: functional

Row | Activity (Bos taurus) | Kd [1] | SMILES | Activity (Rattus norvegicus)
1 | 30% | 120 µM | NCCCCCCCNS(=O)(=O)c1cccc(-c2ccc(F)cc2F)c1 | 
2 | 30% | 60 µM | NCCCCCCCCNS(=O)(=O)c1cccc(-c2ccc(F)cc2F)c1 | 
3 | 30% | 200 µM | NCCCCCCNS(=O)(=O)c1cccc(-c2ccc(F)cc2F)c1 | Active
4 |  | 470 µM | NCCCCCCNS(=O)(=O)c1cccc2c(Cl)cccc12 | 
